Values quoted from earlier work in patent US9326457B2, “Micro layering pest control solution” (DAIRY SOLUTIONS, INC, priority 2013, dated 2016).

Conditions: natural pyrethrum, degrades very quickly; short duration application

Pyrethrin
half life: about 30 mins
